# Assay results as given in US12551532B2, “Long-acting amylin receptor agonists and uses thereof” (Eli Lilly and Company, priority 2021, dated 2026).
# Starred links: 1 amine or outer side, 2 acyl side, 3 side chain; linkers in the order of their positions; H or OH if unused. Positions of bridges follow the written chain, without caps; N, C: chain ends. Non-standard residues stand in square brackets, D forms with d. Residues, ends and D or L forms follow the SMILES beside them. Groups on a side chain read outwards from the residue. *: point of attachment. C20 diacid = O=C(O)CCCCCCCCCCCCCCCCCCC(=O)*; γGlu = O=C(O)[C@H](CCC(=O)[*:2])N[*:1]; αMeL = CC(C)C[C@](C)(N)C(=O)O; Orn = NCCC[C@H](N)C(=O)O; CH2 = C([*:1])[*:2]
# Tests used:
# [1] = Body weight and body composition in diet-induced obese rats, 2-week study; type: in vivo, Long Evan rats; conditions: DIO rats, at 2 weeks vs initial
# Protocol: Male Long Evan rats from Envigo RMS (Indianapolis, IN) at 14 weeks of age are put on a high fat diet (40% of kcal from fat, TD.95217; Envigo RMS, Indianapolis, IN) until 35-45 weeks old. Animals are individually housed in a temperature-controlled facility (75.0° F.; 23.9° C.) with a 12-hour reverse light/dark cycle (lights OFF at 10 AM) and free access to food and water. Body weights are recorded and body composition (fat mass) is determined using Quantitative Nuclear Magnetic Resonance Analysis (ECHO MRI, 3-1 Composition Analyzer; Echo Medical Systems, Houston, TX), followed by randomization into experimental groups (n=5). Rats are administered subcutaneous injections of vehicle or peptide (1 mL/kg) every three days (day 1, 4, 7, 10, and 13). Daily body weights are recorded and changes at end of treatment (day 14) are calculated as percentages versus pre-treatment weights (day 1). Body composition is determined on day 14, and changes in fat mass and fat-free mass (body weight−fat mass) are calculated from pre-treatment values as gram changes.
# [2] = Food intake and body weight in normal rats, single SC dose; type: in vivo, Sprague Dawley rats; conditions: for Δ Body Weight: 96 hours post dose vs initial weights; for Cumulative Food Intake Change vs Vehicle: 96 hours post dose vs vehicle
# Protocol: Male Sprague Dawley rats from Envigo RMS (Indianapolis, IN) are maintained on a chow diet (2014; Teklad Global, Envigo RMS, Indianapolis, IN) and single housed in a temperature-controlled facility (72.0° F.; 22.2° C.) with a reversed 12:12-hour light cycle (10 AM OFF) and free access to food and water. At 10 weeks of age, non-fasted body weights and initial food weights are recorded, and animals are administered a single subcutaneous injection (SC) of vehicle or acylated peptide (1 mL/kg), followed by daily measurements of body weight and food intake for 4 days post dose. Area under the curve analysis (AUC) is calculated for both body weight and food intake versus vehicle.
# [3] = 100 nmol/kg SC every three days
structure (smiles),measurement,setting,value
CC[C@H](C)[C@H](NC(=O)[C@@H]1CCCN1C(=O)CNC(=O)[C@H](Cc1ccccc1)NC(=O)[C@H](CC(N)=O)NC(=O)[C@H](Cc1c[nH]cn1)NC(=O)[C@H](CO)NC(=O)[C@H](CO)NC(=O)[C@H](CCCNC(=N)N)NC(=O)[C@@H](NC(=O)[C@H](CC(C)C)NC(=O)[C@H](Cc1ccccc1)NC(=O)[C@H](CCC(=O)O)NC(=O)[C@H](C)NC(=O)[C@](C)(CC(C)C)NC(=O)[C@H](CCCN)NC(=O)CNC(=O)[C@@H](NC(=O)[C@H](C)NC(=O)[C@@H]1CSCSC[C@H](NC(=O)[C@@H](N)CCCCNC(=O)CC[C@H](NC(=O)CC[C@H](NC(=O)CCCCCCCCCCCCCCCCCCC(=O)O)C(=O)O)C(=O)O)C(=O)N[C@@H](CCC(=O)O)C(=O)N[C@@H]([C@@H](C)O)C(=O)N[C@@H](C)C(=O)N[C@@H]([C@@H](C)O)C(=O)N1)[C@@H](C)O)C(C)C)C(=O)N[C@@H](CC(C)C)C(=O)N1CCC[C@H]1C(=O)N1CCC[C@H]1C(=O)N[C@H](C(=O)N[C@@H](CCC(=O)O)C(=O)N[C@H](C(=O)NCC(=O)N[C@@H](CO)C(=O)N[C@@H](CC(N)=O)C(=O)N[C@H](C(=O)N[C@@H](Cc1ccc(O)cc1)C(N)=O)[C@@H](C)O)C(C)C)[C@@H](C)O [Compound VIII] (H-K([γGlu-γGlu-C20 diacid])CETATCATG[Orn][αMeL]AEFLVRSSHNFGPILPPTEVGSNTY-NH2; linker 2-7 via CH2),Δ Body Weight,[1]; 1 nmol/kg SC every three days,−6.0%
same,Δ Fat Mass,[1]; 1 nmol/kg SC every three days,-36.6 g
same,Δ Fat-Free Mass,[1]; 1 nmol/kg SC every three days,-4.7 g
same,Δ Body Weight,[1]; 10 nmol/kg SC every three days,−9.0%
same,Δ Fat Mass,[1]; 10 nmol/kg SC every three days,-54.3 g
same,Δ Fat-Free Mass,[1]; 10 nmol/kg SC every three days,-7.2 g
same,Δ Body Weight,[1]; [3],−11.5%
same,Δ Fat Mass,[1]; [3],-56.4 g
same,Δ Fat-Free Mass,[1]; [3],-26.9 g
same,Δ Body Weight,[2]; 0.1 nmol/kg SC single dose,2.0%
same,Cumulative Food Intake Change vs Vehicle,[2]; 0.1 nmol/kg SC single dose,1.3%
same,Δ Body Weight,[2]; 0.3 nmol/kg SC single dose,1.6%
same,Cumulative Food Intake Change vs Vehicle,[2]; 0.3 nmol/kg SC single dose,3.2%
same,Δ Body Weight,[2]; 1 nmol/kg SC single dose,−1.0%
same,Cumulative Food Intake Change vs Vehicle,[2]; 1 nmol/kg SC single dose,−17.5%
same,Δ Body Weight,[2]; 3 nmol/kg SC single dose,−3.9%
same,Cumulative Food Intake Change vs Vehicle,[2]; 3 nmol/kg SC single dose,−37.7%
same,Δ Body Weight,[2]; 10 nmol/kg SC single dose,−7.2%
same,Cumulative Food Intake Change vs Vehicle,[2]; 10 nmol/kg SC single dose,−58.5%
same,Δ Body Weight,[2]; 30 nmol/kg SC single dose,−10.8%
same,Cumulative Food Intake Change vs Vehicle,[2]; 30 nmol/kg SC single dose,−67.0%
same,Δ Body Weight,[2]; 100 nmol/kg SC single dose,−13.8%
same,Cumulative Food Intake Change vs Vehicle,[2]; 100 nmol/kg SC single dose,−75.2%
same,Δ Body Weight,[2]; 300 nmol/kg SC single dose,−13.6%
same,Cumulative Food Intake Change vs Vehicle,[2]; 300 nmol/kg SC single dose,−74.9%
same,Δ Body Weight,[2]; 1000 nmol/kg SC single dose,−18.9%
same,Cumulative Food Intake Change vs Vehicle,[2]; 1000 nmol/kg SC single dose,−84.7%
